Here are results for one molecule from EPA's ToxValDB 9.5 (doi:10.2903/j.efsa.2009.1415).

In one data set the test system is Typhlodromus pyri. The data set can be described thus: LR50; higher = less toxic. The following applies: not reported; mortality.
In a further data set the test system is Pimephales promelas. The following applies: chronic/long-term; duration: 35 days; growth.
The test system of a further data set is Apis mellifera. The following applies: acute; duration: 48 hours; dermal; mortality.
The subject of another data set is Cyprinus carpio. To be noted: acute; duration: 96 hours; mortality.
For another data set, the system named is Anas platyrhynchos. To be noted: short-term; oral; feed; mortality.
The subject of a further data set is Daphnia magna. To be noted: chronic/long-term; duration: 21 days; reproduction.

SMILES strings stand for the structures. ≈ marks a conversion by molar mass, not a printed value. Some results are limits rather than exact numbers.

By NOAEL is commonly meant the highest dose or exposure tested at which no adverse effect was seen. Regarding `CCCOCC(=Nc1ccc(Cl)cc1C(F)(F)F)n1ccnc1` [Triflumizole], the LR50 in the data set on Typhlodromus pyri turned out to be 63 g/ha. Also, the NOEC in the data set on Pimephales promelas was 0.044 mg/L; in the data set with Colinus virginianus (reproduction developmental), at least 97.2 mg/kg-day; in the data set with Daphnia magna, 0.18 mg/L. For the same molecule, the LD50 is above 20 µg/piece in the data set with Apis mellifera; above 2510 mg/kg-day with Colinus virginianus (acute, oral, mortality); 1060 mg/kg-day with Rattus norvegicus (acute, oral, mortality). Moreover, the LC50 in the data set with Cyprinus carpio was 1.28 mg/L (≈ 3.7 µM); in the data set with Anas platyrhynchos, above 1430 mg/kg-day. The NOAEL in the data set with Rattus norvegicus (chronic, duration: 2 years, organ weight) turned out to be 3.5 mg/kg-day; in the data set with Rattus norvegicus (developmental, development), 10 mg/kg-day; with Rattus norvegicus (reproduction developmental, reproduction), 4.8 mg/kg-day; with Rattus norvegicus (subchronic, duration: 90 days, organ weight), 4.1 mg/kg-day.
